Results on one compound are retold here after article PMC5688156, “The natural product carolacton inhibits folate-dependent C1 metabolism by targeting FolD/MTHFD” (Nature Communications, 2017).

Where two headings read alike, the source gives them in different places.

For one assay, the target named is T1, hsMTHFD2 (Homo sapiens, UniProt P13995).
T1 construct: His-tag (vector pHis-TEV) (cleaved yes); made in house; host or cells: E. coli BL21 (DE3)
T1 sequence (P13995 36-350): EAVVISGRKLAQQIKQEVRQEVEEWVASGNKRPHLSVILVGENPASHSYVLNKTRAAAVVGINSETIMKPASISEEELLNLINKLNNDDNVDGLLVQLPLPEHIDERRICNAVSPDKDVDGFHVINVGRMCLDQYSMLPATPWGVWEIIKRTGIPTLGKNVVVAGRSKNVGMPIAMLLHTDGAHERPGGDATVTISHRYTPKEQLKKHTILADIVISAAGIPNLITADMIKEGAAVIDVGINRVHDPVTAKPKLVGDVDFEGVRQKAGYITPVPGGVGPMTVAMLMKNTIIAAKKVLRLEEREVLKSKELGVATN
Nature of the assay: hsMTHFD2 dehydrogenase (DH) enzyme assay. In kind it is biochemical. The procedure: (§1) (6R,S)-5,10-Methylene-5,6,7,8-tetrahydrofolic acid ((6R,S)-5,10-CH2-THF) calcium salt and (6R,S)-5,10-Methenyl-5,6,7,8-tetrahydrofolic acid ((6R,S)-5,10-CH=THF) chloride were purchased from Schircks Laboratories (Bauma, Switzerland) and used as substrates for FolD dehydrogenase and cyclohydrolase enzyme assays, respectively. Only the R-isomer, which accounts for 50% of (6R,S)-5,10-CH2-THF and (6R,S)-5,10-CH=THF, respectively, is used by the enzyme. (6R,S)-5,10-CH2-THF was dissolved in N2-spargeled basic buffer (50 mM Tris-HCl (pH 8.0), 100 mM β-mercaptoethanol) as described by Varshney et al.[25]. (6R,S)-5,10-CH=THF was dissolved in DMSO as a 100 mM stock solution.
Because FolD is a bifunctional enzyme, dehydrogenase and cyclohydrolase activities were determined for FolD enzyme kinetics, respectively. The dehydrogenase activity of FolD was assayed for its substrate 5,10-CH2-THF and cofactor NADP^+ (in the case of MTHFD2, NAD^+ was used as the cofactor) based on monitoring the formation of 5,10-CH=THF, while the cyclohydrolase activity of FolD was determined for its substrate 5,10-CH=THF by monitoring the hydrolysis of […]. The enzyme kinetics for the dehydrogenase activity of all FolDs except hsMTHFD1_DC were determined at 30 °C in 50 mM Tris-HCl (pH 7.5), 30 mM β-mercaptoethanol. The hsMTHFD1_DC dehydrogenase activity was measured in 25 mM MOPS (pH 7.3), 30 mM β-mercaptoethanol at 30 °C. To measure the enzyme kinetic constants for 5,10-CH2-THF, for example in the case of ecFolD, the NADP concentration was fixed at 1 mM and the concentration of 5,10-CH2-THF varied from 5 to 1500 μM (R-isomer). Similarly, to measure the kinetic constants of ecFolD for NADP^+, the concentration of 5,10-CH2-THF (R-isomer) was fixed at 1 mM and the concentration of NADP^+ varied from 10 to 1500 μM. For different FolDs, the varied concentration range of substrates could be different. […] To monitor the formation of 5,10-CH=THF, the absorbance of the reaction mixture was monitored at 350 nm in micro UV cuvettes (BRAND, Essex, Connecticut, USA). The concentration of 5,10-CH=THF produced in the reaction was determined using an extinction co-efficient of 0.0249 μM^−1 cm^−1. […] The consumption of 5,10-CH=THF was measured by recording the absorbance of the reactions at 355 nm using the TECAN Infinite 200 PRO equipped with a monochromator. […] The inhibition constants (K i) of carolacton on FolD were determined by measuring the apparent K m when adding certain amounts of carolacton to the enzyme reactions. […] To compare the inhibition effects of carolacton between the different FolDs, the half maximal inhibitory concentration (IC50) of carolacton on the same amount of enzyme was determined for FolDs involved in this study. […]

The next assay addresses T2, ecFolD ΔK54R55 (Escherichia coli, UniProt P24186, DEL54-55).
T2 construct: His-tag (TEV-cleavable, vector pHis-TEV); made in house; host or cells: E. coli BL21 (DE3)
Nature of the assay: ecFolD ΔK54R55 mutant dehydrogenase (DH) enzyme assay. Format: biochemical, E. coli. On the procedure:
as §1
Because FolD is a bifunctional enzyme, dehydrogenase and cyclohydrolase activities were determined for FolD enzyme kinetics, respectively. The dehydrogenase activity of FolD was assayed for its substrate 5,10-CH2-THF and cofactor NADP^+ (in the case of MTHFD2, NAD^+ was used as the cofactor) based on monitoring the formation of 5,10-CH=THF, while the cyclohydrolase activity of FolD was determined for its substrate 5,10-CH=THF by monitoring the hydrolysis of […]. The enzyme kinetics for the dehydrogenase activity of all FolDs except hsMTHFD1_DC were determined at 30 °C in 50 mM Tris-HCl (pH 7.5), 30 mM β-mercaptoethanol. […]

By IC50 is commonly meant the midpoint of a concentration-inhibition curve. The term IC80 denotes the concentration needed for an effect of 80%. One may read the Ki as the dissociation constant of the complex between target and ligand, obtained from inhibition or displacement. For `CO[C@H](CC(=O)O)[C@@H](C)C(=O)[C@H](C)/C=C(\C)[C@H]1OC(=O)[C@H](O)[C@H](O)/C=C/[C@H](C)CCC[C@@H]1C` [carolacton], the half-maximal inhibitory concentration (IC50) on hsMTHFD2 (10 nM enzyme, read-out: IC50, carolacton inhibition on DH activity) stood at 0.0065 µM. Further, the concentration for an effect of 80% (IC80) on hsMTHFD2 (10 nM enzyme, read-out: IC80, carolacton inhibition on DH activity) was 0.0317 µM. In addition, the Ki was determined as 0.0167 µM at hsMTHFD2 (cofactor is NAD+ in the case of hsMTHFD2, read-out: Ki (NADP+), carolacton inhibition on DH activity) and 0.00642 µM at hsMTHFD2 (vs 5,10-CH2-THF, read-out: Ki (5,10-CH2-THF), carolacton inhibition on DH activity). In addition, the “sensitivity of residual DH activity to carolacton” value at ecFolD ΔK54R55 is listed as “completely insensitive”.
